Test results from PubChem BioAssay AID624355 (The Scripps Research Institute Molecular Screening Center, 2012).
Active and inactive are the calls of the source.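 Rule for the calls: active = inhibition of at least 50% in a panel; inactive = the rest.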

Legend:
Experiment in all cases: GPCR and transporter radioligand displacement panel – cell-based, radioligand binding, single concentration, selectivity assay for STAT3/NF-kB dual inhibitor project, profiling panel (AID 624355)
[1] = system: Serotonin (5-Hydroxytryptamine) 5-HT3; details: Ricerca radioligand binding panel, receptors/transporters, at 10 µM, hits give high values
[2] = target: D(1A) dopamine receptor (Homo sapiens) (UniProt P21728); details: Ricerca radioligand binding panel, receptors/transporters; Dopamine D1; at 10 µM; hits give high values
Melatonin MT1 = details: Ricerca radioligand binding panel, receptors/transporters, at 10 µM, hits give high values
[3] = system: Glutamate, NMDA, Phencyclidine; details: Ricerca radioligand binding panel, receptors/transporters, Phencyclidine site, at 10 µM, hits give high values
Histamine H3 = details: Ricerca radioligand binding panel, receptors/transporters, at 10 µM, hits give high values
[4] = target: 5-hydroxytryptamine receptor 1A (Homo sapiens) (UniProt P08908); details: Ricerca radioligand binding panel, receptors/transporters; Serotonin (5-Hydroxytryptamine) 5-HT1A; at 10 µM; hits give high values
Potassium Channel KATP = details: Ricerca radioligand binding panel, receptors/transporters, at 10 µM, hits give high values
[5] = system: Calcium Channel L-Type, Benzothiazepine; details: Ricerca radioligand binding panel, receptors/transporters, Benzothiazepine site, at 10 µM, hits give high values
Calcium Channel N-Type = details: Ricerca radioligand binding panel, receptors/transporters, at 10 µM, hits give high values
Adrenergic a1A = details: Ricerca radioligand binding panel, receptors/transporters, at 10 µM, hits give high values
Cannabinoid CB1 = details: Ricerca radioligand binding panel, receptors/transporters, at 10 µM, hits give high values
Bradykinin B1 = details: Ricerca radioligand binding panel, receptors/transporters, at 10 µM, hits give high values
Purinergic P2Y = details: Ricerca radioligand binding panel, receptors/transporters, at 10 µM, hits give high values
Histamine H1 = details: Ricerca radioligand binding panel, receptors/transporters, at 10 µM, hits give high values
Nicotinic Acetylcholine = details: Ricerca radioligand binding panel, receptors/transporters, at 10 µM, hits give high values
Transporter, GABA = details: Ricerca radioligand binding panel, receptors/transporters, at 10 µM, hits give high values
Bradykinin B2 = details: Ricerca radioligand binding panel, receptors/transporters, at 10 µM, hits give high values
Thyroid Hormone = details: Ricerca radioligand binding panel, receptors/transporters, at 10 µM, hits give high values
Adrenergic B1 = details: Ricerca radioligand binding panel, receptors/transporters, at 10 µM, hits give high values
Phorbol Ester = details: Ricerca radioligand binding panel, receptors/transporters, at 10 µM, hits give high values
[6] = target: Voltage-gated inwardly rectifying potassium channel KCNH2 (Homo sapiens) (UniProt Q12809); details: Ricerca radioligand binding panel, receptors/transporters; Potassium Channel hERG; at 10 µM; hits give high values
Endothelin ETA = details: Ricerca radioligand binding panel, receptors/transporters, at 10 µM, hits give high values
Histamine H2 = details: Ricerca radioligand binding panel, receptors/transporters, at 10 µM, hits give high values
[7] = target: Beta-2 adrenergic receptor (Homo sapiens) (UniProt P07550); details: Ricerca radioligand binding panel, receptors/transporters; Adrenergic B2; at 10 µM; hits give high values
[8] = system: Transporter, Dopamine (DAT); details: Ricerca radioligand binding panel, receptors/transporters, at 10 µM, hits give high values
[9] = system: Transporter, Serotonin (5-Hydroxytryptamine); details: Ricerca radioligand binding panel, receptors/transporters, at 10 µM, hits give high values
Glutamate, Kainate = details: Ricerca radioligand binding panel, receptors/transporters, at 10 µM, hits give high values
Tachykinin NK1 = details: Ricerca radioligand binding panel, receptors/transporters, at 10 µM, hits give high values
Sigma1 = details: Ricerca radioligand binding panel, receptors/transporters, at 10 µM, hits give high values
[10] = system: GABAA, Flunitrazepam, Central; details: Ricerca radioligand binding panel, receptors/transporters, Flunitrazepam site, at 10 µM, hits give high values
Glutamate, NMDA, Glycine = details: Ricerca radioligand binding panel, receptors/transporters, Glycine site, at 10 µM, hits give high values
Adenosine A3 = details: Ricerca radioligand binding panel, receptors/transporters, at 10 µM, hits give high values
[11] = target: Muscarinic acetylcholine receptor M2 (Homo sapiens) (UniProt P08172); details: Ricerca radioligand binding panel, receptors/transporters, at 10 µM, hits give high values
Adrenergic a1B = details: Ricerca radioligand binding panel, receptors/transporters, at 10 µM, hits give high values
[12] = target: Neuropeptide Y receptor type 1 (Homo sapiens) (UniProt P25929); details: Ricerca radioligand binding panel, receptors/transporters; Neuropeptide Y Y1; at 10 µM; hits give high values
[13] = target: Alpha-2A adrenergic receptor (Homo sapiens) (UniProt P08913); details: Ricerca radioligand binding panel, receptors/transporters; Adrenergic a2A; at 10 µM; hits give high values
Adenosine A1 = details: Ricerca radioligand binding panel, receptors/transporters, at 10 µM, hits give high values
GABAB1A = details: Ricerca radioligand binding panel, receptors/transporters, at 10 µM, hits give high values
Dopamine D2S = details: Ricerca radioligand binding panel, receptors/transporters, at 10 µM, hits give high values
[14] = system: Transporter, Norepinephrine (NET); details: Ricerca radioligand binding panel, receptors/transporters, at 10 µM, hits give high values
[15] = target: Estrogen receptor (Homo sapiens) (UniProt P03372); details: Ricerca radioligand binding panel, receptors/transporters; Estrogen Era; at 10 µM; hits give high values
[16] = system: Voltage-dependent L-type calcium channel subunit beta-4 (Rattus norvegicus) + Pro-epidermal growth factor (Homo sapiens) + Estrogen receptor (Homo sapiens) + Glucocorticoid receptor (Homo sapiens) + 5-hydroxytryptamine receptor 1A (Homo sapiens) + Alpha-2A adrenergic receptor (Homo sapiens) + Adenosine receptor A3 (Homo sapiens) + Androgen receptor (Homo sapiens) + Muscarinic acetylcholine receptor M1 (Homo sapiens) + D(4) dopamine receptor (Homo sapiens) + Alpha-2A adrenergic receptor (Rattus norvegicus) + Sodium- and chloride-dependent GABA transporter 1 (Rattus norvegicus) + Endothelin receptor type B (Homo sapiens) + Histamine H2 receptor (Homo sapiens) + Endothelin-1 receptor (Homo sapiens) + Neuropeptide Y receptor type 1 (Homo sapiens) + B2 bradykinin receptor (Homo sapiens) + Sodium-dependent serotonin transporter (Homo sapiens) + Histamine H1 receptor (Homo sapiens) + Mu-type opioid receptor (Homo sapiens) + D(3) dopamine receptor (Homo sapiens) + Delta-type opioid receptor (Homo sapiens) + Kappa-type opioid receptor (Homo sapiens) + Glutamate receptor ionotropic, kainate 3 (Rattus norvegicus) + 5-hydroxytryptamine receptor 3A (Homo sapiens) + Melatonin receptor type 1A (Homo sapiens) + Neuropeptide Y receptor type 2 (Homo sapiens) + P2Y purinoceptor 1 (Rattus norvegicus) + Thyroid hormone receptor alpha (Rattus norvegicus) + Glutamate receptor ionotropic, NMDA 2B (Rattus norvegicus) + Sodium-dependent dopamine transporter (Homo sapiens) + Protein kinase C zeta type …; details: Ricerca radioligand binding panel, receptors/transporters; at 10 µM; hits give high values
[17] = target: Glucocorticoid receptor (Homo sapiens) (UniProt P04150); details: Ricerca radioligand binding panel, receptors/transporters, at 10 µM, hits give high values
Adrenergic a1D = details: Ricerca radioligand binding panel, receptors/transporters, at 10 µM, hits give high values
[18] = target: Kappa-type opioid receptor (Homo sapiens) (UniProt P41145); details: Ricerca radioligand binding panel, receptors/transporters; Opiate (OP2, KOP); at 10 µM; hits give high values
[19] = target: Muscarinic acetylcholine receptor M1 (Homo sapiens) (UniProt P11229); details: Ricerca radioligand binding panel, receptors/transporters, at 10 µM, hits give high values
GABAA, Muscimol, Central = details: Ricerca radioligand binding panel, receptors/transporters, Muscimol site, at 10 µM, hits give high values
[20] = target: Platelet-activating factor receptor (Homo sapiens) (UniProt P25105); details: Ricerca radioligand binding panel, receptors/transporters; Platelet Activating Factor (PAF); at 10 µM; hits give high values
Opiate (OP3, MOP) = details: Ricerca radioligand binding panel, receptors/transporters, at 10 µM, hits give high values
[21] = system: Androgen (Testosterone) AR; details: Ricerca radioligand binding panel, receptors/transporters, at 10 µM, hits give high values
Imidazoline I2, Central = details: Ricerca radioligand binding panel, receptors/transporters, at 10 µM, hits give high values
Dopamine D4.2 = details: Ricerca radioligand binding panel, receptors/transporters, at 10 µM, hits give high values
Adenosine A2A = details: Ricerca radioligand binding panel, receptors/transporters, at 10 µM, hits give high values
[22] = system: Epidermal Growth Factor (EGF); details: Ricerca radioligand binding panel, receptors/transporters, at 10 µM, hits give high values
[23] = system: Calcium Channel L-Type, Dihydropyridine; details: Ricerca radioligand binding panel, receptors/transporters, Dihydropyridine site, at 10 µM, hits give high values
[24] = target: Neuropeptide Y receptor type 2 (Homo sapiens) (UniProt P49146); details: Ricerca radioligand binding panel, receptors/transporters; Neuropeptide Y Y2; at 10 µM; hits give high values
[25] = target: D(3) dopamine receptor (Homo sapiens) (UniProt P35462); details: Ricerca radioligand binding panel, receptors/transporters; Dopamine D3; at 10 µM; hits give high values
Rolipram = details: Ricerca radioligand binding panel, receptors/transporters, at 10 µM, hits give high values
[26] = system: Leukotriene, Cysteinyl CysLT1; details: Ricerca radioligand binding panel, receptors/transporters, at 10 µM, hits give high values
Glutamate, NMDA, Agonism = details: Ricerca radioligand binding panel, receptors/transporters, Agonism site, at 10 µM, hits give high values
Purinergic P2X = details: Ricerca radioligand binding panel, receptors/transporters, at 10 µM, hits give high values
Prostanoid EP4 = details: Ricerca radioligand binding panel, receptors/transporters, at 10 µM, hits give high values
Endothelin ETB = details: Ricerca radioligand binding panel, receptors/transporters, at 10 µM, hits give high values
Interleukin IL-1 = details: Ricerca radioligand binding panel, receptors/transporters, at 10 µM, hits give high values
[27] = target: 5-hydroxytryptamine receptor 2B (Homo sapiens) (UniProt P41595); details: Ricerca radioligand binding panel, receptors/transporters; Serotonin (5-Hydroxytryptamine) 5-HT2B; at 10 µM; hits give high values
[28] = target: Muscarinic acetylcholine receptor M3 (Homo sapiens) (UniProt P20309); details: Ricerca radioligand binding panel, receptors/transporters, at 10 µM, hits give high values
[29] = target: Delta-type opioid receptor (Homo sapiens) (UniProt P41143); details: Ricerca radioligand binding panel, receptors/transporters; Opiate (OP1, DOP); at 10 µM; hits give high values
Chain of Delta-type opioid receptor (Homo sapiens) (P41143 whole entry, looked up): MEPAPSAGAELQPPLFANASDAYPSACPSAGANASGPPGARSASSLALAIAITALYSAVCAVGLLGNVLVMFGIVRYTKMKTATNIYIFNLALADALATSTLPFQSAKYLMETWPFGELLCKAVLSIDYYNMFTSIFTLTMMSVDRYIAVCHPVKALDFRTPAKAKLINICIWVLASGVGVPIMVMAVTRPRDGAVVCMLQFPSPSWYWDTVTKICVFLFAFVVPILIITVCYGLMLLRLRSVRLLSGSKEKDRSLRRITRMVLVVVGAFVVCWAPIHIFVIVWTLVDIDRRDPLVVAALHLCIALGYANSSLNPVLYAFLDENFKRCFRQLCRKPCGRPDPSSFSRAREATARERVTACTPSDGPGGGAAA

Chain of Platelet-activating factor receptor (Homo sapiens) (P25105 whole entry, looked up): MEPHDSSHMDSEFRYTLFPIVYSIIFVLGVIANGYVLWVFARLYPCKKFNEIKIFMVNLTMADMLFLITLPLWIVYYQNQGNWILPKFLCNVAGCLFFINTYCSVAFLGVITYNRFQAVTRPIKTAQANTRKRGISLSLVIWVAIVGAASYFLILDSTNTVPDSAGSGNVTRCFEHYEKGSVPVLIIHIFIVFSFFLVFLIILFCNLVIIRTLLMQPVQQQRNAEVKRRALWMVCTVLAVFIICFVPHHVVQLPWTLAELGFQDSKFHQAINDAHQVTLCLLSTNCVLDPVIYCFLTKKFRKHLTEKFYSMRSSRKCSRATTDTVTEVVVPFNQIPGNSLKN
Chain of Alpha-2A adrenergic receptor (Homo sapiens) (P08913 whole entry, looked up): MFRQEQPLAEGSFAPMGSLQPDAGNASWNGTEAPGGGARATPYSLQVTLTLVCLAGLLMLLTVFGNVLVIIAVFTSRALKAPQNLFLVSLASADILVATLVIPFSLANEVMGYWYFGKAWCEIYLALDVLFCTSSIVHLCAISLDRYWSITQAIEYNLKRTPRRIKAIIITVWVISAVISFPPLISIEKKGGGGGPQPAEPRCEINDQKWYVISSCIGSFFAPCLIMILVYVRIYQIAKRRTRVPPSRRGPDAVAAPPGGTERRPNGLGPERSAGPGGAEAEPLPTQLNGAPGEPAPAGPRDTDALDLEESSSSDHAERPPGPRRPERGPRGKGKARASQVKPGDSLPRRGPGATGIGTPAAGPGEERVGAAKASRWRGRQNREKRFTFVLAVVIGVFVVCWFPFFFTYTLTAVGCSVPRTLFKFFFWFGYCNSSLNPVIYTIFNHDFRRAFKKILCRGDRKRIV
Chain of Muscarinic acetylcholine receptor M3 (Homo sapiens) (P20309 whole entry, looked up): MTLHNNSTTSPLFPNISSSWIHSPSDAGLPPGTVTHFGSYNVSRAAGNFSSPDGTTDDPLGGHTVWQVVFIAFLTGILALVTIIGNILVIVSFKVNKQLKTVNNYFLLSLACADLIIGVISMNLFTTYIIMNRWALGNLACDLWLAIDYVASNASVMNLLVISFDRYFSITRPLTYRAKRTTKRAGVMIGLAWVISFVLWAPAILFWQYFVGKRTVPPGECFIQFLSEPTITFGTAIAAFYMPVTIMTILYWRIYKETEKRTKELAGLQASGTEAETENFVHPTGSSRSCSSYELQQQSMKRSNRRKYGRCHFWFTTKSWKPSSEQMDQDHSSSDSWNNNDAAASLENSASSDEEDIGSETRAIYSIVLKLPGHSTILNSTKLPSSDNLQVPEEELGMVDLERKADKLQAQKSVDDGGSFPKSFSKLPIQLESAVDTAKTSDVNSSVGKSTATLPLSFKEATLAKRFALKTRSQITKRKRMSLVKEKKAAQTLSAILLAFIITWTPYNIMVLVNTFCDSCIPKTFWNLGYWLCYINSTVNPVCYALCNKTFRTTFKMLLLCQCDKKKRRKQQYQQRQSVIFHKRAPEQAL
Chain of Glucocorticoid receptor (Homo sapiens) (P04150 whole entry, looked up): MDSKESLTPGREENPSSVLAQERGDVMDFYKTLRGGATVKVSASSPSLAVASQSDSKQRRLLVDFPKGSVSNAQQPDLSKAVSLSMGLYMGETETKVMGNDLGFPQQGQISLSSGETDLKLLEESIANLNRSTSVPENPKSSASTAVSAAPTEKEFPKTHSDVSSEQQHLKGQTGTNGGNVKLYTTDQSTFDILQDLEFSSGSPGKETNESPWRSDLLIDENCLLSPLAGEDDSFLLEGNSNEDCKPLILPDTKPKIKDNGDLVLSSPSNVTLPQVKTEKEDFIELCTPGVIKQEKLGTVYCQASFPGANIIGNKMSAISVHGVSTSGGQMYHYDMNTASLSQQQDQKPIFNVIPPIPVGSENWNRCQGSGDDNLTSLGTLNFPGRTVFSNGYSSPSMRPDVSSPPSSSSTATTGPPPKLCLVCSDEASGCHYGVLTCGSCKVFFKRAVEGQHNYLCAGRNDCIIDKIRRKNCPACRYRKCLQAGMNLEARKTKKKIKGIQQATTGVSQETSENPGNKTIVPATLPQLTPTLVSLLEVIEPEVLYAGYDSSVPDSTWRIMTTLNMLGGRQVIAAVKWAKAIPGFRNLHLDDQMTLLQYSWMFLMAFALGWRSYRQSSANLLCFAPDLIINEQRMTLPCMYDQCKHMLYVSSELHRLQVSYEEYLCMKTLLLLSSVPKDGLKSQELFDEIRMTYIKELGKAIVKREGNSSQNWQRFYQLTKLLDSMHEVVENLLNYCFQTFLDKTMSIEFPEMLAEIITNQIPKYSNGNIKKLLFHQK
Chain of Neuropeptide Y receptor type 1 (Homo sapiens) (P25929 whole entry, looked up): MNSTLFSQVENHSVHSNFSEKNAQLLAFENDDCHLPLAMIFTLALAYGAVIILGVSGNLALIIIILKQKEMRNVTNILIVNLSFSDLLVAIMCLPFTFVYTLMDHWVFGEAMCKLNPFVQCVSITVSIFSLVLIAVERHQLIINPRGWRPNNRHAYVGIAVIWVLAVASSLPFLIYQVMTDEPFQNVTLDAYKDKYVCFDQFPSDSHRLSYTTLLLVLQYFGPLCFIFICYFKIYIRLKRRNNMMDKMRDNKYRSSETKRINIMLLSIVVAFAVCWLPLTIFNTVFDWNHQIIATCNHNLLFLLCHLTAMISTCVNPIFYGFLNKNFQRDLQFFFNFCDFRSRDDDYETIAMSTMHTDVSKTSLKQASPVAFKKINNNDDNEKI
Chain of Kappa-type opioid receptor (Homo sapiens) (P41145 whole entry, looked up): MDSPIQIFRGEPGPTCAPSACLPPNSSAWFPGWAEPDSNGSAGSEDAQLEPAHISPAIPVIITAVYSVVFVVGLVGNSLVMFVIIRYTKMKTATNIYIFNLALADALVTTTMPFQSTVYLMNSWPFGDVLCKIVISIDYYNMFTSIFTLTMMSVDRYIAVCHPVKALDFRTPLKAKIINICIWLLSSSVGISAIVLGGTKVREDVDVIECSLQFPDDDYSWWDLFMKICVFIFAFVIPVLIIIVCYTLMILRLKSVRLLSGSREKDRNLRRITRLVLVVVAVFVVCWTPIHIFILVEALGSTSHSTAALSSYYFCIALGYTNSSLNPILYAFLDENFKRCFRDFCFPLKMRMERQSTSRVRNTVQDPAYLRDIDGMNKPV
Chain of D(3) dopamine receptor (Homo sapiens) (P35462 whole entry, looked up): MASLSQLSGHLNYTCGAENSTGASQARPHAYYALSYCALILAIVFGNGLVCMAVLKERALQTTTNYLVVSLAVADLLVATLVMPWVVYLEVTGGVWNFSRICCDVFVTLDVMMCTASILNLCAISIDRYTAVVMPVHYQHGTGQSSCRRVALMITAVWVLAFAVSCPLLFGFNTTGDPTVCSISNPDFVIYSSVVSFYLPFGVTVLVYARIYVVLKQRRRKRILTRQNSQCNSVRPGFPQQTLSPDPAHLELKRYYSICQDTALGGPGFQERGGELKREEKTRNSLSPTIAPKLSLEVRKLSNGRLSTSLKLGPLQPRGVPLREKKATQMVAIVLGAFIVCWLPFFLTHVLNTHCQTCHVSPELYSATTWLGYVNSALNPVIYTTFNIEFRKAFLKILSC
Chain of Estrogen receptor (Homo sapiens) (P03372 whole entry, looked up): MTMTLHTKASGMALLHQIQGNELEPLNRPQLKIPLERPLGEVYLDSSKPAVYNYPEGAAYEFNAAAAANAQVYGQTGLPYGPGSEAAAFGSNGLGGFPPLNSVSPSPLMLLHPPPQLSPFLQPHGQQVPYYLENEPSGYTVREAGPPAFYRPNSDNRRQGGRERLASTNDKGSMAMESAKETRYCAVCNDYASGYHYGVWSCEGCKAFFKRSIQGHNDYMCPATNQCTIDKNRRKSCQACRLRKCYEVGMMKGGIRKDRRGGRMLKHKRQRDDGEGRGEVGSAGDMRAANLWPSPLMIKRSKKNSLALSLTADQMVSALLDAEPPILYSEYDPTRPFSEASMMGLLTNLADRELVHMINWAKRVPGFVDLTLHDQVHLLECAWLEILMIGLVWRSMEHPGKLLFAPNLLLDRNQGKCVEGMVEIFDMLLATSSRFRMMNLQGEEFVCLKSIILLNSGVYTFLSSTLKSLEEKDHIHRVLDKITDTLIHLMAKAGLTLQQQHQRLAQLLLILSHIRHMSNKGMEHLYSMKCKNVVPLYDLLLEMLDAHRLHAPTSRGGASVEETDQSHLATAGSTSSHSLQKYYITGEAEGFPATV
Chain of Muscarinic acetylcholine receptor M2 (Homo sapiens) (P08172 whole entry, looked up): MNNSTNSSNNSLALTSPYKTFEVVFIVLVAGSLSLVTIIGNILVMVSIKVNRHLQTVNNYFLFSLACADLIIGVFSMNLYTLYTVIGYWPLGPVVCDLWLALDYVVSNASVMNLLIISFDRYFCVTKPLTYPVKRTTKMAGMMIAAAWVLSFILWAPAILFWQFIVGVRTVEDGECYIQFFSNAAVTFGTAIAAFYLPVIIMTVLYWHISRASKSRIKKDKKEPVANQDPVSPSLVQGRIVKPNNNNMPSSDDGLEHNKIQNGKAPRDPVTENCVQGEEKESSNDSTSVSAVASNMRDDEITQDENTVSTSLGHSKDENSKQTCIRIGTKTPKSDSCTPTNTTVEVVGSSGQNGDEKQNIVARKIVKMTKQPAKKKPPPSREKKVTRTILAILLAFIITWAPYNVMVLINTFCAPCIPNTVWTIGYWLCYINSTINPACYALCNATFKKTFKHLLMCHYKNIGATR

COc1ccc(CC2CCN(c3ncnc4sccc34)CC2)cc1
inhibition [1]: -13% (inactive)
inhibition [2]: 7% (inactive)
inhibition (Melatonin MT1): 68%
inhibition [3]: 13% (inactive)
inhibition (Histamine H3): -2% (inactive)
inhibition [4]: 1% (inactive)
inhibition (Potassium Channel KATP): 18% (inactive)
inhibition [5]: 8% (inactive)
inhibition (Calcium Channel N-Type): -2% (inactive)
inhibition (Adrenergic a1A): 28% (inactive)
inhibition (Cannabinoid CB1): 28% (inactive)
inhibition (Bradykinin B1): 4% (inactive)
inhibition (Purinergic P2Y): -7% (inactive)
inhibition (Histamine H1): 8% (inactive)
inhibition (Nicotinic Acetylcholine): -26% (inactive)
inhibition (Transporter, GABA): 1% (inactive)
inhibition (Bradykinin B2): 8% (inactive)
inhibition (Thyroid Hormone): 9% (inactive)
inhibition (Adrenergic B1): 23% (inactive)
inhibition (Phorbol Ester): 10% (inactive)
inhibition [6]: 28% (inactive)
inhibition (Endothelin ETA): 21% (inactive)
inhibition (Histamine H2): -8% (inactive)
inhibition [7]: 10% (inactive)
inhibition [8]: 98%
inhibition [9]: 44% (inactive)
inhibition (Glutamate, Kainate): -3% (inactive)
inhibition (Tachykinin NK1): 6% (inactive)
inhibition (Sigma1): 13% (inactive)
inhibition [10]: -6% (inactive)
inhibition (Glutamate, NMDA, Glycine): 1% (inactive)
inhibition (Adenosine A3): 23% (inactive)
inhibition [11]: 4% (inactive)
inhibition (Adrenergic a1B): 6% (inactive)
inhibition [12]: 2% (inactive)
inhibition [13]: 56%
inhibition (Adenosine A1): 52%
inhibition (GABAB1A): 10% (inactive)
inhibition (Dopamine D2S): 11% (inactive)
inhibition [14]: 80%
inhibition [15]: 1% (inactive)
inhibition [16]: 3% (inactive)
inhibition [17]: 15% (inactive)
inhibition (Adrenergic a1D): 19% (inactive)
inhibition [18]: 69%
inhibition [19]: -5% (inactive)
inhibition (GABAA, Muscimol, Central): 58%
inhibition [20]: 30% (inactive)
inhibition (Opiate (OP3, MOP)): 55%
inhibition [21]: 11% (inactive)
inhibition (Imidazoline I2, Central): 15% (inactive)
inhibition (Dopamine D4.2): 4% (inactive)
inhibition (Adenosine A2A): 31% (inactive)
inhibition [22]: 2% (inactive)
inhibition [23]: 47% (inactive)
inhibition [24]: 11% (inactive)
inhibition [25]: 51%
inhibition (Rolipram): 12% (inactive)
inhibition [26]: -3% (inactive)
inhibition (Glutamate, NMDA, Agonism): 9% (inactive)
inhibition (Purinergic P2X): -12% (inactive)
inhibition (Prostanoid EP4): 27% (inactive)
inhibition (Endothelin ETB): 6% (inactive)
inhibition (Interleukin IL-1): 9% (inactive)
inhibition [27]: 47% (inactive)
inhibition [28]: 11% (inactive)
inhibition [29]: 27% (inactive)
